Assay results taken from patent US20200371122A1, “BIOMARKER FOR SENESCENT CELLS” (Buck Institute for Research on Aging, priority 2017, published 2020).

System: IMR-90 fibroblasts
Format: cell-based, human
Conditions: for number of cells following irradiation: 5 Gy IR, 10 days
Description: Human fetal lung fibroblasts (IMR-90) were cultured in Dulbecco's modified eagle medium (DMEM) supplemented with 10% FBS and penicillin/streptomycin. LL 29 (AnHa) cells were obtained from the ATCC and growth to confluence using the ATCC protocol, but were subcultured as described for IMR-90 before initiation of all experiments. Quiescence was induced by replacing culture media with media containing 0.2% FBS. MCF-7 and MDA-MB-231 breast cancer cells were cultured in RPMI supplemented with 10% FBS and penicillin/streptomycin. All cells were cultured at 3% O2, and used between 25 and 40 population doublings. All cells were mycoplasma free.
RNA was extracted from cells or tissues using commercially available kits (Isolate II—Bioline for cells; Direct-zol—Zymo for tissues) according to the manufacturer's instructions. cDNA synthesis was performed using a High Capacity cDNA Reverse Transcription Kit (Thermo Fisher) according to the manufacturer's instructions. Quantitative PCR was performed on a LightCycler 480 II (Roche) using primers and probes designed for the Universal Probe Library. Primers and probes used for human transcripts were ACTB: 5′-CCAACCGCGAGAAGATGA (SEQ ID NO:1), 5′-TCCATCACGATGCCAGTG (SEQ ID NO:2), Probe #64; TUBA: 5′-cttcgtctccgccatcag (SEQ ID NO:3), 5′-ttgccaatctggacacca (SEQ ID NO:4), Probe #58; ALOX5: 5′-[…] (SEQ ID NO:5), 5′-[…] (SEQ ID NO:6), Probe #64; ALOX5AP: 5′-ggtctgcggggctacttt (SEQ ID NO:7), 5′-[…] (SEQ ID NO:8), Probe #18; ALOX12: 5′-[…] (SEQ ID NO:9), 5′-agccaggtcgtcaggag (SEQ ID NO:10), Probe #32; ALOX15: 5′-[…] (SEQ ID NO:11), 5′-[…] (SEQ ID NO:12), Probe #76; ALOX15B: 5′-[…] (SEQ ID NO:13), 5′-actgggaggcgaagaagg (SEQ ID NO:14), Probe #51; AKR1C1: 5′-catgcctgtcctgggattt (SEQ ID NO:15), 5′-[…] (SEQ ID NO:16), Probe #49; AKR1C2: 5′-ctatgcgcctgcagaggt (SEQ ID NO:17), 5′-[…] (SEQ ID NO:18), Probe #31; AKR1C3: 5′-[…] (SEQ ID NO:19), 5′-[…] (SEQ ID NO:20), Probe #78; CYSLTR2: 5′-[…] (SEQ ID NO:21), 5′-[…] (SEQ ID NO:22), Probe #18; DPEP1: 5′-gacgtcctgaggctggtg (SEQ ID NO:23), 5′-[…] (SEQ ID NO:24), Probe #9 (SEQ ID NO:25), ELOVL2: 5′-[…] (SEQ ID NO:26), 5′-[…] (SEQ ID NO:27), Probe #53; ELOVL4: 5′-catttggcccatggattc (SEQ ID NO:28), 5′-[…] (SEQ ID NO:29), Probe #31; ELOVL5: 5′-cccttccatgcgtccata (SEQ ID NO:30), 5′-[…] (SEQ ID NO:31), Probe #31; EPHX2: 5′-ttctgctggacaccctgaa (SEQ ID NO:32), 5′-[…] (SEQ ID NO:33), Probe #45; GPX4: 5′-ttcccgtgtaaccagttcg (SEQ ID NO:34), 5′-[…] (SEQ ID NO:35), Probe #36; LTA4H: 5′-ctgctctcacggtccagtc (SEQ ID NO:36), 5′-[…] (SEQ ID NO:37), Probe #64; LTBR2: 5′-[…] (SEQ ID NO:38), 5′-[…] (SEQ ID NO:39), Probe #33; LTC4S: 5′-[…] (SEQ ID NO:40), 5′-[…] (SEQ ID NO:41), Probe #18; PTGDS: 5′-[…] (SEQ ID NO:42), 5′-[…] (SEQ ID NO:43), Probe #36; PTGES: 5′-agagatgcctgcccacag (SEQ ID NO:44), 5′-tggccaccacgtacatctt (SEQ ID NO:45), Probe #4; PTGES2: 5′-[…] (SEQ ID NO:46), 5′-[…] (SEQ ID NO:47), Probe #49; PTGES3 (SEQ ID NO:48), 5′-[…] (SEQ ID NO:49), 5′-[…] (SEQ ID NO:50), Probe #48; PTGIS: 5′-[…] (SEQ ID NO:51), 5′-[…] (SEQ ID NO:52), Probe #45; PTGR1: 5′-atgatggggcagcaagtg (SEQ ID NO:53), 5′-cccatcagaaatggagtgc (SEQ ID NO:54), Probe #64; PTGS1: 5′-[…] (SEQ ID NO:55), 5′-gtggtggtccatgttcctg (SEQ ID NO:56), Probe #81; PTGS2: 5′-gatccccagggctcaaac (SEQ ID NO:57), 5′-[…] (SEQ ID NO:58), Probe #61; TBXAS1: 5′-[…] (SEQ ID NO:59), 5′-tgcctcccgtgtgaatct (SEQ ID NO:60), Probe #73; AREG: 5′-[…] (SEQ ID NO:61), 5′-[…] (SEQ ID NO:62), Probe #73; CCL2: 5′-AGTCTCTGCCGCCCTTCT (SEQ ID NO:63), 5′-GTGACTGGGGCATTGATTG (SEQ ID NO:64), Probe #40; CCL27: 5′-[…] (SEQ ID NO:65), 5′-gctgggtggcagtaggaat (SEQ ID NO:66), Probe #18; CXCL1: 5′-[…] (SEQ ID NO:67), 5′-[…] (SEQ ID NO:68), Probe #52; HGF: 5′-[…] (SEQ ID NO:69), 5′-[…]

Compound	number of cells following irradiation	cell number relative to DMSO-treated SEN(IR) cells (SEN(IR) cells counted for IL-6 ELISA normalization)
CC(c1cc2ccccc2s1)N(O)C(N)=O (stereo not drawn) [zileuton]	mildly increased	
CS(=O)(=O)Nc1ccc([N+](=O)[O-])cc1OC1CCCCC1 [NS-398]	significantly increased	increase in cell number
